{"source": "patent US4366148A", "about": "“Use of somatostatin in the prevention and cure of vascular, membrane, or organ lesions” (Brigham and Women's Hospital, priority 1981, dated 1982)", "key": {"rats given phalloidin [1]": {"system": "rats given phalloidin", "test": "Toxicity of phalloidin: hemorrhagic liver lesions and mortality after pretreatment", "type": "in vivo, Sprague-Dawley rat", "conditions": "for Hepatic lesions (Scale: 0-3) / Mortality (%): pretreatment before phalloidin 0.12 mg/100 g i.p.; for Hepatic lesions (Scale: 0-3): 0=normal, 3=enlargement and uniform hemorrhage of whole liver; for Mortality (%): observed up to 24 hr; for protective effect against phalloidin toxicity (lesions, mortality), in words: rats given phalloidin 0.12 mg/100 g i.p.", "method": "In the present studies, Sprague-Dawley rats with an initial body weight of about 200 g had free access to Purina lab chow and tap water. Each control and experimental group consisted of 3-5 animals; every experiment was performed at least twice and the results were pooled.\nSomatostatin (250 μg in 1 ml of protamine sulfate and ZnCl2 suspension) was injected s.c. 30 min before and 30 min after the administration of phalloidin (0.12 mg/100 g i.p.). In addition, 10 min before the toxin, another dose of 250 μg of somatostatin in 1 ml of distilled water was given i.p. Other groups of rats also received the sulfhydryl blocker N-ethylmaleimide (alone or in combination with somatostatin), 2 mg/100 g s.c. 20 min before and 40 min after phalloidin. A --SH free agalogue of somatostatin was used instead of the regular somatostatin in the same dose and at the same time in some experiments. This --SH free analogus was Di-S-tBu-Somatostatin, in which the hydrogens of the --SH groups (cystein) were replaced with t-butyl groups. […] The hemorrhagic liver lesions were evaluated on a scale of 0-3, where 0=normal, 1=multifocal (1-5 mm) hemorrhages, 2=large hemorrhagic areas entirely involving one lobe (usually the left and/or medium), 3=enlargement and uniform hemorrhage involving the whole liver."}, "rats given phalloidin [2]": {"system": "rats given phalloidin", "test": "Model study: phalloidin intoxication of rats, mortality, liver weight, histology", "type": "in vivo, rat", "conditions": "for liver histology (light microscopy): phalloidin-intoxicated rats, with or without somatostatin", "method": "This toxin kills rats within about 4 hours after intraperitoneal injection. Rats injected with phalloidin show a massive increase in liver size accompanied by hemorrhage. In a control group of rats given phalloidin but no somatostatin, 22 or 24 rats died within 2-4 hours. […] In the test group of 26 animals that were treated with both phalloidin and somatostatin, only 8 rats died. Furthermore, only a 30% average increase in liver weight was found in 10 animals treated with somatostatin and phalloidin and sacrificed four hours after intoxication."}, "[3]": {"system": "hepatic blood vessels of rats given phalloidin", "test": "Hepatic uptake of Evans blue after phalloidin (vascular and hepatic membrane lesions)", "type": "in vivo, Sprague-Dawley rat", "conditions": "for Evans blue (μg/g liver): Evans blue 1 mg/100 g i.v. 15 min before autopsy, somatostatin 250 μg s.c. 30 and 10 min before phalloidin; for hepatic uptake of Evans blue, in words: rats given phalloidin with or without somatostatin", "method": "(§1) In the biochemical experiments, the animals were also injected with Evans blue 15 min before autopsy. At autopsy the portal vein was perfused in situ with 20 ml of saline to remove blood from hepatic vasculature. […] In the morphologic experiments, groups of rats were also injected with colloidal carbon (India ink, 0.1 mg/100 g i.v.) 15 min before autopsy. At that time pieces of liver were processed for subsequent light or electron microscopic studies. […] In rats given phalloidin, carbon labeling of sinusoidal macrophages was decreased in the centrilobular areas, while early deposits of carbon were seen along the sinusoidal walls in the periportal regions. […] As opposed to controls, carbon particles were also seen beyond endothelial cells and in Disse space soon after phalloidin injection. Subsequently, vacuolation of hepatocytes and increased amount of extravascular plasma-like material were noticed.\nIn all of the experiments, female or male Sprague-Dawley rats (150-200 g) were used. The animals were given free access to Purina lab chow and tap water. Each group consisted of at least 3-4 rats; every experiment was repeated at least twice and the results were pooled.\nControl animals were injected with normal saline 30 min prior to sacrifice and autopsy. Animals treated with phalloidin alone were injected i.p. with 0.12 mg/100 g body weight 15 min, 30 min, or 60 min before sacrifice and autopsy. Animals treated with both phalloidin and somatostatin received phalloidin as above in addition to 250 μg s.c. somatostatin at 30 and 10 minutes before the phalloidin injection. The first somatostatin injection was dissolved in 1 ml of solution consisting of 0.5 ml of 0.1% protamine sulfate and 0.5 ml of ZnCl2, 250-260 μg/ml. The second somatostatin injection was given in normal saline. In addition, rats of all groups were given Evans blue, 1 mg/100 g i.v., 15 min before sacrifice and autopsy. Livers were prefused with 20 ml of saline in situ through the protal vein to remove intravascular dye prior to measuring dye uptake by the liver tissue.\nA one gram sample from the left lobe was measured spectrophotometrically to determine the uptake of Evans blue dye in μg/g liver tissue."}, "[4]": {"system": "cysteamine-induced duodenal ulcer", "conditions": "pretreatment with exogenous somatostatin; cited from earlier work"}, "[5]": {"system": "experimentally-induced pancreatitis", "conditions": "in vivo; cited from earlier work"}, "adrenal and lung lesions": {"system": "adrenal and lung lesions", "conditions": "in vivo; cited from earlier work"}, "[6]": {"system": "liver of rats given phalloidin", "test": "Morphologic experiments: colloidal carbon (India ink) labeling of liver, light and electron microscopy", "type": "in vivo, rat", "method": "In both cases, rats were given saline (control), phalloidin alone, or phalloidin and somatostatin. Somatostatin was given in subcutaneous injections in a solution of protamine sulfate and zinc chloride in order to prolong its effectiveness, or in normal saline.\nas §1"}, "[7]": {"conditions": "15 min after phalloidin 0.12 mg/100 g i.p."}, "[8]": {"conditions": "30 min after phalloidin 0.12 mg/100 g i.p."}, "[9]": {"conditions": "60 min after phalloidin 0.12 mg/100 g i.p."}}, "note": "Numbered stars: 1 amine (or outer) side, 2 acyl side, 3 side chain; on linkers, the order of the positions; unused ones are H or OH. Bridge positions count the residues as written; N and C are the ends. Square brackets hold non-standard residues; d marks the D form. Peptide text beside a SMILES is read from it. Trp(2-yl) = O=C([C@H](Cc1c([*:3])[nH]c2ccccc12)N[*:1])[*:2]; Leu(4R-OH,5-OH) = C[C@](O)(CO)C[C@H](N)C(=O)O; cisHyp = O=C(O)[C@@H]1C[C@H](O)CN1", "data": [{"compound": "CCN1C(=O)C=CC1=O", "note": "[N--Ethylmaleimide (N--EM), N-ethylmaleimide]", "values": [{"measurement": "Hepatic lesions (Scale: 0-3)", "setting": "rats given phalloidin [1]", "result": "2.3 ± 0.2"}, {"measurement": "Mortality (%)", "setting": "rats given phalloidin [1]", "result": 90, "unit": "%"}, {"measurement": "protective effect against phalloidin toxicity (lesions, mortality), in words", "setting": "rats given phalloidin [1]; listed as N-ethylmaleimide", "result": "counteracted the protective action of regular somatostatin"}, {"measurement": "protective effect against phalloidin toxicity (lesions, mortality), in words", "setting": "rats given phalloidin [1]; listed as N-ethylmaleimide (N-EM)", "result": "counteracted the beneficial effect of somatostatin"}]}, {"compound": "C[C@@H]1NC(=O)[C@H](C[C@@](C)(O)CO)NC(=O)[C@@H]2Cc3c([nH]c4ccccc34)SC[C@H](NC(=O)[C@@H]([C@H](C)O)NC1=O)C(=O)N1C[C@@H](O)C[C@H]1C(=O)N[C@@H](C)C(=O)N2", "note": "[Phalloidin, phalloidin] (cyclo(A[dT]C[cisHyp]A[Trp(2-yl)][Leu(4R-OH,5-OH)]); thioether 3-6)", "values": [{"measurement": "time within which the toxin kills rats", "setting": "rats given phalloidin [2]; after intraperitoneal injection", "result": "≤ 4", "unit": "h"}, {"measurement": "average increase in liver weight, phalloidin alone", "setting": "rats given phalloidin [2]; autopsy of rats that died after phalloidin alone", "result": 70, "unit": "%"}, {"measurement": "rats died, phalloidin but no somatostatin", "setting": "rats given phalloidin [2]; control group of 24 rats given phalloidin alone", "result": 22, "unit": "rats"}, {"measurement": "time within which control rats died", "setting": "rats given phalloidin [2]; control group, phalloidin but no somatostatin", "result": "2 to 4", "unit": "h"}, {"measurement": "liver histology (light microscopy)", "setting": "rats given phalloidin [2]", "result": "vacuolization of hepatocytes, congestion, and hemorrhagic necrosis"}, {"measurement": "Evans blue (μg/g liver)", "setting": "[3]; [7]", "result": "11.21 ± 2.40", "unit": "μg/g liver"}, {"measurement": "Evans blue (μg/g liver)", "setting": "[3]; [8]", "result": "28.50 ± 4.67", "unit": "μg/g liver"}, {"measurement": "Evans blue (μg/g liver)", "setting": "[3]; [9]", "result": "51.08 ± 13.56", "unit": "μg/g liver"}, {"measurement": "hepatic uptake of Evans blue, in words", "setting": "[3]", "result": "time dependent increase"}]}, {"compound": "Di-S-tBu-Somatostatin [di-S--tBu-Somatostatin]", "values": [{"measurement": "Hepatic lesions (Scale: 0-3)", "setting": "rats given phalloidin [1]", "result": "2.7 ± 0.2"}, {"measurement": "Mortality (%)", "setting": "rats given phalloidin [1]", "result": 92, "unit": "%"}, {"measurement": "protective effect against phalloidin toxicity (lesions, mortality), in words", "setting": "rats given phalloidin [1]; listed as somatostatin analogue without thiol groups", "result": "inactive"}, {"measurement": "protective effect against phalloidin toxicity (lesions, mortality), in words", "setting": "rats given phalloidin [1]; listed as sulfhydryl-free derivative of somatostatin", "result": "without effect"}]}, {"compound": "Somatostatin", "values": [{"measurement": "cysteamine-induced duodenal ulcer", "setting": "[4]", "result": "prevents"}, {"measurement": "gastric acid output", "setting": "[4]", "result": "minimal inhibition"}, {"measurement": "effect on experimentally-induced pancreatitis", "setting": "[5]", "result": "beneficial effect"}, {"measurement": "effect on adrenal and lung lesions", "setting": "adrenal and lung lesions", "result": "beneficial effect"}, {"measurement": "Hepatic lesions (Scale: 0-3)", "setting": "rats given phalloidin [1]", "result": "0.7 ± 0.2"}, {"measurement": "Mortality (%)", "setting": "rats given phalloidin [1]", "result": 20, "unit": "%"}, {"measurement": "protective effect against phalloidin toxicity (lesions, mortality), in words", "setting": "rats given phalloidin [1]", "result": "significantly diminished"}, {"measurement": "average increase in liver weight, somatostatin and phalloidin", "setting": "rats given phalloidin [2]; 10 animals sacrificed four hours after intoxication", "result": 30, "unit": "%"}, {"measurement": "liver histology (light microscopy)", "setting": "rats given phalloidin [2]", "result": "only mild vacuolization of hepatocytes and slight congestion"}, {"measurement": "rats died, phalloidin and somatostatin", "setting": "rats given phalloidin [2]; test group of 26 animals treated with both phalloidin and somatostatin", "result": 8, "unit": "rats"}, {"measurement": "Evans blue (μg/g liver)", "setting": "[3]; [7]", "result": "7.17 ± 0.64", "unit": "μg/g liver"}, {"measurement": "Evans blue (μg/g liver)", "setting": "[3]; [8]", "result": "16.93 ± 4.76", "unit": "μg/g liver"}, {"measurement": "Evans blue (μg/g liver)", "setting": "[3]; [9]", "result": "15.50 ± 4.65", "unit": "μg/g liver"}, {"measurement": "hepatic uptake of Evans blue, in words", "setting": "[3]", "result": "virtually abolished this enhanced uptake"}, {"measurement": "hepatic uptake of Evans blue, in words", "setting": "[3]; listed as somatostatin", "result": "prevented or significantly decreased"}, {"measurement": "distribution of India ink / carbon labeling of sinusoidal walls, light microscopy", "setting": "[6]; colloidal carbon 0.1 mg/100 g i.v. 15 min before autopsy, after phalloidin", "result": "virtually abolished the carbon labeling of sinusoidal walls"}, {"measurement": "electron microscopic changes (endothelial breakdown, extravascular carbon, vacuolation of hepatocytes)", "setting": "[6]; livers of rats given somatostatin and phalloidin", "result": "markedly diminished or absent"}]}]}
